Counter-ions that a name gives are not always drawn.
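Further: Luminescence-based viability readout, five doses per compound, normalized against on-plate DMSO and empty-well controls, followed by dose-response curve fitting for every drug.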

This experiment has as its system HCT116. The experiment can be described thus: efficacy (fitted maximal change in viability relative to DMSO control); higher = less cytotoxic (negative = loss of viability). The note with it: 48 h.
Take `CCC(C)(C)c1ccc(CC(C)CN2C[C@@H](C)O[C@@H](C)C2)cc1` (stereo partly specified) [Amorolfine hydrochloride]: the efficacy is -10%.
Consider `CC1(C)S[C@H]2[C@H](NC(=O)[C@@H](N)c3ccc(O)cc3)C(=O)N2[C@H]1C(=O)O` [Amoxicillin sodium], for which the efficacy came to 6.82%.
The figure for `C[C@@H]1CC2=C(C=C3OCOC3=C2)C(=N\N1C(C)=O)/C4=CC=C(N)C=C4` [Ampanel] is -12.4%; for `C[C@@H]1[C@H](O)[C@@H](C)/C=C/C=C/C=C/C=C/C=C/C=C/C=C/[C@H](O[C@@H]2O[C@H](C)[C@@H](O)[C@H](N)[C@@H]2O)C[C@@H]2O[C@](O)(C[C@@H](O)C[C@@H](O)[C@H](O)CC[C@@H](O)C[C@@H](O)CC(=O)O[C@H]1C)C[C@H](O)[C@H]2C(=O)O` [Amphotericin B] it is -15.3%.
The figure for `N#CC(O[C@@H]1O[C@H](CO[C@@H]2O[C@H](CO)[C@@H](O)[C@H](O)[C@H]2O)[C@@H](O)[C@H](O)[C@H]1O)c1ccccc1` (stereo partly specified) [Amygdalin] is 29%; for `COc1cc(F)c(C(C)C)cc1-c1ccc(C(F)(F)F)cc1CN1C(=O)O[C@H](c2cc(C(F)(F)F)cc(C(F)(F)F)c2)[C@@H]1C` [Anacetrapib] it is -14.3%.
The figure for `ClC1=CC=C2N/C3=N/C(=O)CN3CC2=C1Cl` [Anagrelide] is -14.6%; for `CN(C)N(C)C(=O)[C@@]1(Cc2ccccc2)CCCN(C(=O)[C@@H](Cc2c[nH]c3ccccc23)NC(=O)C(C)(C)N)C1` [Anamorelin] it is -33.8%; for `CC(C)(C#N)c1cc(Cn2cncn2)cc(C(C)(C)C#N)c1` [Anastrozole] it is -11.5%.
Turning to `CC(=O)Nc1ccc(OC[C@](C)(O)C(=O)Nc2ccc([N+](=O)[O-])c(C(F)(F)F)c2)cc1` [Andarine], the efficacy is -7.63%.
Under `COc1ccc(C(=O)N2CCCC2=O)cc1` [Aniracetam] stands -17.4%; under `CNC(=O)c1ccc(N2C(=S)N(c3cnc(C#N)c(C(F)(F)F)c3)C(=O)C23CCC3)cc1F` [Apalutamide], -24.3%; under `N#CC1(c2ccc(NC(=O)c3cccnc3NCc3ccncc3)cc2)CCCC1` [Apatinib], -32.7%.
Under `Cn1c(/C=C/CO)c(CO)c2c1C(=O)C=C(N1CC1)C2=O` [Apaziquone] stands -8.27%.
On to `OC1=CC=C(C=C1)\C2=C\C(=O)C3=C(O2)C=C(O)C=C3O` [Apigenin], for which the efficacy was -82%.
Under `NNc1nncc2ccccc12` [Apresoline] stands 28.9%.
Take `CC1CNc2c(cccc2[S+](=O)([O-])N[C@@H](CCCNC(=N)N)C(=O)N2CC[C@@H](C)C[C@@H]2C(=O)O)C1` (stereo partly specified) [Argatroban]: the efficacy was -15.9%.
The figure for `CO[C@H]1O[C@@H]2O[C@@]3(C)CC[C@H]4[C@H](C)CC[C@@H]([C@H]1C)[C@@]24OO3` [Artemether] is -12.5%; for `CN1C[C@@H]2c3ccccc3Oc3ccc(Cl)cc3[C@H]2C1` [Asenapine maleate] it is -77.1%.
For `CC(C)(O)[C@H]1CC[C@@](C)([C@H]2[C@@H](O)C[C@@]3(C)[C@@H]4C[C@H](O[C@@H]5O[C@H](CO)[C@@H](O)[C@H](O)[C@H]5O)[C@H]5C(C)(C)[C@@H](O[C@@H]6OC[C@@H](O)[C@H](O)[C@H]6O)CC[C@@]56C[C@@]46CC[C@]23C)O1` [Astragaloside A], the efficacy was 6.04%.
The figure for `CC/1=C/2C[C@H]3C(=C)CCC[C@]3(C)/C=C2OC1=O` [Atractylenolide I] is 6.55%.
Under `CN1C2CCC1CC(OC(=O)C(CO)c1ccccc1)C2` (stereo unspecified) [Atropine (sulfate monohydrate)] stands -6.96%; under `COc1ccc([C@@H]2CC(=O)c3c(O)cc(O[C@@H]4O[C@H](CO[C@@H]5O[C@@H](C)[C@H](O)[C@@H](O)[C@H]5O)[C@@H](O)[C@H](O)[C@H]4O)cc3O2)cc1O` [Aurantiamarin (Methyl Hesperidin)], -15%.
Under `Cc1ccc(NC(=O)[C@H]2CCCN(C(=O)c3c(C)cccc3F)[C@H]2c2ccc(NC3CCCC3)cc2)cc1C(F)(F)F` [Avacopan] stands -27.6%; under `NC(=O)[C@@H](CCC(F)(F)F)N(Cc1ccc(-c2ncon2)cc1F)[S+](=O)([O-])c1ccc(Cl)cc1` [Avagacestat], -65.8%.
Consider `COc1ccc(C(=O)CC(=O)c2ccc(C(C)(C)C)cc2)cc1` [Avobenzone], for which the efficacy is -43.1%.
The figure for `CN1C(=O)COc2c(C(=O)NC3CN4CCC3CC4)cc(Cl)cc21` (stereo unspecified) [Azasetron hydrochloride] is 21.5%; for `CC[C@H]1OC(=O)[C@H](C)[C@@H](O[C@H]2C[C@@](C)(OC)[C@@H](O)[C@H](C)O2)[C@H](C)[C@@H](O[C@@H]2O[C@H](C)C[C@H](N(C)C)[C@H]2O)[C@](C)(O)C[C@@H](C)CN(C)[C@H](C)[C@@H](O)[C@]1(C)O` [Azithromycin] it is -20.7%; for `CCOc1ccccc1N/N=C1/C(=O)N(c2nc(-c3ccccc3)cs2)N=C1C` [BAM-7] it is -7.98%.
Under `O=C(O)CC(C(=O)O)N1C(=O)/C(=C2/C(=O)Nc3ccc(Br)cc32)SC1=S` (stereo unspecified) [BCL6 Inhibitor] stands -11.7%.
Under `CN(C)CCN(C)CCc1ccc(Cl)c(Cl)c1` [BD-1047] stands -29.2%; under `C[C@H]1CC2[C@@H]3CCC/4=C/C(=O)/C=C\[C@]4(C)[C@@]3(F)[C@@H](O)C[C@]2(C)[C@@]1(O)C(=O)CO` (stereo partly specified) [BETAMETHASONE], -11.5%.
Regarding `O=C(Nc1cccc(C(F)(F)F)c1)c1cccc2cc(Oc3cc(CO)ncn3)ccc12` [BFH-772], the efficacy was 15.5%.
`N/C(=N\OCC(O)CN1CCCCC1)c1cccnc1` (stereo unspecified) [BGP-15]: the efficacy was -14.5%.
The figure for `OC1=CC=C2\C3=C(CNCC3)/C(=O)OC2=C1C4OCCCO4` [BI09] is 9.24%; for `CC[C@@H]1C(=O)N(C)c2cnc(Nc3ccc(C(=O)NC4CCN(C)CC4)cc3OC)nc2N1C1CCCC1` [BI-2536] it is -71.6%.
The figure for `COC1=CC(=CC(=C1CN(C)C)OC)\C2=C\N(C)C(=O)C3=C2C=CN=C3` [BI-7273] is -29.9%; for `C/C(=C\C(=O)Nc1ccccc1C(=O)O)c1ccc2ccccc2c1` [BIBR-1532] it is -69.1%.
The figure for `C=CC(=O)N[C@H]1CCOC[C@H]1Nc1ncc2cc(-c3c(Cl)c(OC)cc(OC)c3Cl)ccc2n1` [BLU-554] is -30.8%; for `C=CC(=O)Nc1cccc(C)c1Nc1ncc2cc(-c3c(Cl)c(OC)cc(OC)c3Cl)ccc2n1` [BLU-9931] it is -50.4%.
For `C[N]1N=CN=C1[C@@H]2[C@H](NC3=CC(=CC4=C3\C2=N/NC4=O)F)C5=CC=C(F)C=C5` [BMN-673], the efficacy was -16.8%.
The figure for `CCNC(=O)Nc1ncc(-c2cc(-c3c(C)cc(OC)cc3C)nc(-c3cnccn3)n2)s1` [BMS-4] is 14%.
On to `CN(CC(=O)N(Cc1ccc(C2CCCCC2)cc1)c1ccc(C(=O)O)c(O)c1)[S+](=O)([O-])c1c(F)c(F)c(F)c(F)c1F` [BP-1-102], for which the efficacy was -10.2%.
The figure for `O=C(Cc1ccccc1)Nc1nnc(CCSCCc2nnc(NC(=O)Cc3ccccc3)s2)s1` [BPTES] is -25%; for `CC(C)C[C@@H]1NC(=O)[C@@H](C(C)C)NC(=O)[C@@H]2CCCN2C(=O)[C@@H](CC(=O)O)NC(=O)[C@@H](Cc2c[nH]c3ccccc23)NC1=O` [BQ-123] it is -9.37%.
Under `C[N]1N=C(C)C2=C1OC(=C(/C#N)C2C3=CC=C(C=C3)C(F)(F)F)/N` (stereo unspecified) [BQU-57] stands -30.8%; under `CC(C)c1cnn2c(NCc3ccccc3)cc(NCCCCCCN)nc12` [BS-181], -106%; under `Cc1c(Cl)cccc1[S+](=O)([O-])Nc1nc(CCN2CCOCC2=O)cs1` [BVT-3498], -14.1%.
With `O=C(NCCCNc1nc(Nc2cccc(NC(=O)N3CCCC3)c2)ncc1I)c1cccs1` [BX-795], the efficacy is -76.5%.
Under `CCC(C)C(N)\C1=N\C(CS1)C(=O)N[C@@H](CC(C)C)C(=O)N[C@H](CCC(O)=O)C(=O)N[C@@H]([C@@H](C)CC)C(=O)N[C@H]2CCCCNC(=O)[C@H](CC(N)=O)NC(=O)[C@@H](CC(O)=O)NC(=O)[C@H](CC3=CN=C[NH]3)NC(=O)[C@@H](CC4=CC=CC=C4)NC(=O)[C@@H](NC(=O)[C@@H](CCCN)NC2=O)[C@@H](C)CC` (stereo partly specified) [Bacitracin (Zinc)] stands -26.9%.
The figure for `OC1=CC2=C(C(=O)\C=C(/O2)C3=CC=CC=C3)C(=C1O)O` [Baicalein] is -14.7%; for `CNC1CCCN(C1)C2=C(F)C=C3C(=O)\C(=C/N(C4CC4)C3=C2OC)C(O)=O` (stereo unspecified) [Balofloxacin] it is -10.2%.
The figure for `O=C(O)CCNC(=O)c1ccc(/N=N/c2ccc(O)c(C(=O)O)c2)cc1` [Balsalazide disodium] is -11.7%; for `Cc1onc(-c2ccc(F)cc2)c1COc1ccc(C(=O)N2CC[S+](=O)([O-])CC2)cn1` [Basmisanil] it is -18.7%; for `CNC(=O)[C@H](Cc1ccccc1)NC(=O)[C@H](CC(C)C)[C@H](CSc1cccs1)C(=O)NO` [Batimastat] it is -46.2%.
For `CCOC(=O)[C@H](CCc1ccccc1)N[C@H]1CCc2ccccc2N(CC(=O)O)C1=O` [Benazepril], the efficacy is -8.42%.
Under `Cl.NC(CO)C(=O)NNCc1ccc(O)c(O)c1O` (stereo unspecified) [Benserazide] stands -65.3%; under `CCCCC(=O)O[C@@]1([C@@H](C)C[C@H]2[C@@H]3CCC/4=C/C(=O)/C=C\[C@]4(C)[C@@]3(F)[C@@H](O)C[C@]12C)C(=O)CO` [Betamethasone valerate], -7.12%.
Under `CC(C)NCC(O)COc1ccc(CCOCC2CC2)cc1` (stereo unspecified) [Betaxolol] stands -9.42%; under `CC(C[N+](C)(C)C)OC(N)=O` (stereo unspecified) [Bethanechol chloride], -25.8%.
The figure for `C=C(C)[C@@H]1CC[C@]2(C(=O)O)CC[C@]3(C)[C@H](CC[C@@H]4[C@@]5(C)CC[C@H](O)C(C)(C)[C@@H]5CC[C@]43C)[C@@H]12` [Betulinic acid] is 14.5%.
